Each structure is given as a SMILES string. pIC50: −log10 of the molar value.

p38α, sequence (Q16539 whole entry): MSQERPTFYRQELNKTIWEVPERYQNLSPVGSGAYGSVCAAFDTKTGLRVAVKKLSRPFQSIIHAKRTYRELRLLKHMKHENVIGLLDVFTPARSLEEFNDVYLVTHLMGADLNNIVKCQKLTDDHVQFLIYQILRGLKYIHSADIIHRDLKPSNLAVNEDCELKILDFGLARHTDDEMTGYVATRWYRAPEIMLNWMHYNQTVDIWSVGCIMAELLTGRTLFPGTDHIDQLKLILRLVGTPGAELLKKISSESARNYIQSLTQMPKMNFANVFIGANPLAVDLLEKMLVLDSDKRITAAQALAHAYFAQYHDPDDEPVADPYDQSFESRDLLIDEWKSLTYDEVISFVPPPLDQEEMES

The assay concerns the target p38α (Homo sapiens, UniProt Q16539). In words: p38α/MK2 cascade assay. It is filed as biochemical. The note with it: Table 2; same p38α/MK2 cascade assay; 40 minutes preincubation; read-out: p38a/MK2 Cascade 40 min Pre-Incuabtion (% Inhibition): IC50. The essentials:
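In a cascade format, p38α was preincubated 40 min with inhibitor (1000–0.05 nM) before adding 1 nM nonactive MK2 (54-400), 5 μM MgATP and 0.5 μM FITC-Hsp27 peptide. Reaction ran 60 min in HEPES pH 7.5 with MgCl2, DTT, 2% DMSO, then EDTA-quenched. Peptide phosphorylation was measured by Caliper mobility shift to give IC50.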
For the compound `COc1cccc(Cn2c(C)cc(OCc3ccc(F)cc3CNC(=O)Nc3cc(C(C)(C)C)nn3-c3cccc(OC)c3)c(Cl)c2=O)c1` [Example 201, 1-[3-tert-butyl-1-(3-methoxyphenyl)-1H-pyrazol-5-yl]-3-[2-({[3-chloro-1-(3-methoxybenzyl)-6-methyl-2-oxo-1,2-dihydropyridin-4-yl]oxy}methyl)-5-fluoro-benzyl]urea], the pIC50 was 8.35.
As for `COc1ccc(Cn2c(C)cc(OCc3ccc(F)cc3CNC(=O)Nc3cc(C(C)(C)C)nn3-c3ccc(Cl)c(O)c3)c(Cl)c2=O)cc1` [Example 202, 1-[3-tert-butyl-1-(4-chloro-3-hydroxyphenyl)-1H-pyrazol-5-yl]-3-[2-({[3-chloro-1-(4-methoxy-benzyl)-6-methyl-2-oxo-1,2-dihydropyridin-4-yl]oxy}methyl)-5-fluorobenzyl]urea], the pIC50 was 8.51.
The same measure for `COC(=O)c1ccc(C)c(-n2c(C)cc(OCc3ccc(F)cc3CNC(=O)Nc3cc(C(C)(C)C)nn3-c3cccc(O)c3)c(Cl)c2=O)c1` [Example 203, methyl 3-{4-[(2-{[({[3-tert-butyl-1-(3-hydroxy-phenyl)-1H-pyrazol-5-yl]amino}-carbonyl)amino]-methyl}-4-fluorobenzyl)oxy]-3-chloro-6-methyl-2-oxopyridin-1(2H)-yl}-4-methylbenzoate]: 8.55; for `COC(=O)c1ccc(C)c(-n2c(SC)nc(OCc3ccccc3CNC(=O)Nc3cc(C(C)(C)C)nn3-c3ccc(C)cc3)cc2=O)c1` [Example 204, methyl 3-{4-[(2-{[({[3-tert-butyl-1-(4-methylphenyl)-1H-pyrazol-5-yl]amino}carbonyl)-amino]-methyl}-benzyl)oxy]-2-(methylthio)-6-oxopyrimidin-1(6H)-yl}-4-methylbenzoate]: 7.58.
Then `COC(=O)c1ccc(C)c(-n2c(C)cc(OCc3ccccc3CNC(=O)Nc3cc(C(C)(C)C)nn3-c3ccc(C)cc3)c(Cl)c2=O)c1` [Example 205, methyl 3-{4-[(2-{[({[3-tert-butyl-1-(4-methylphenyl)-1H-pyrazol-5-yl]amino}carbonyl)-amino]methyl}benzyl)oxy]-3-chloro-6-methyl-2-oxopyridin-1(2H)-yl}-4-methylbenzoate], with 8.60.
The same measure for `CNC(=O)c1ccc(C)c(-n2c(C)cc(OCc3ccc(F)cc3CNC(=O)Nc3cc(C(C)(C)C)nn3-c3ccc(C)cc3)c(Cl)c2=O)c1` [Example 206, 3-{4-[(2-{[({[3-tert-butyl-1-(4-methylphenyl)-1H-pyrazol-5-yl]amino}carbonyl)amino]methyl}-4-fluorobenzyl)oxy]-3-chloro-6-methyl-2-oxopyridin-1(2H)-yl}-N,4-dimethylbenzamide]: 8.43; for `Cc1ccc(-n2nc(C(C)(C)C)cc2NC(=O)NCc2cc(F)ccc2COc2cc(C)n(-c3cc(C(=O)O)ccc3C)c(=O)c2Br)cc1` [Example 207, 3-{3-bromo-4-[(2-{[({[3-tert-butyl-1-(4-methylphenyl)-1H-pyrazol-5-yl]amino}carbonyl)-amino]methyl}-4-fluorobenzyl)oxy]-6-methyl-2-oxopyridin-1(2H)-yl}-4-methylbenzoic acid]: 8.34; for `CNC(=O)c1ccc(C)c(-n2c(C)cc(OCc3ccc(F)cc3CNC(=O)Nc3cc(C(C)(C)C)nn3-c3cccc(OC)c3)c(Cl)c2=O)c1` [Example 208, 3-{4-[(2-{[({[3-tert-butyl-1-(3-methoxyphenyl)-1H-pyrazol-5-yl]amino}carbonyl)amino]methyl}-4-fluorobenzyl)oxy]-3-chloro-6-methyl-2-oxopyridin-1(2H)-yl}-N,4-dimethyl-benzamide]: 8.75.
For the compound `COC(=O)c1ccc(C)c(-n2c(C)cc(OCc3ccccc3CNC(=O)Nc3cc(C(C)(C)C)nn3-c3cccc(OCCO)c3)c(Cl)c2=O)c1` [Example 209, methyl 3-[4-{[2-({[({3-tert-butyl-1-[3-(2-hydroxyethoxy)-phenyl]-1H-pyrazol-5-yl}amino)carbonyl]-amino}methyl)-benzyl]oxy}-3-chloro-6-methyl-2-oxopyridin-1(2H)-yl]-4-methylbenzoate], the pIC50 was 8.42.
Turning to `Cc1ccc(C(=O)NCCO)cc1-n1c(C)cc(OCc2ccccc2CNC(=O)Nc2cc(C(C)(C)C)nn2-c2cccc(OCCO)c2)c(Cl)c1=O` [Example 210, 3-[4-{[2-({[({3-tert-butyl-1-[3-(2-hydroxyethoxy)phenyl]-1H-pyrazol-5-yl}amino)carbonyl]amino}methyl)-benzyl]oxy}-3-chloro-6-methyl-2-oxopyridin-1(2H)-yl]-N-(2-hydroxyethyl)-4-methylbenzamide], the pIC50 was 8.54.
The same measure for `CNC(=O)c1ccc(C)c(-n2c(C)cc(OCc3ccccc3CNC(=O)Nc3cc(C(C)(C)C)nn3-c3cccc(OCCO)c3)c(Cl)c2=O)c1` [Example 211, 3-[4-{[2-({[({3-tert-butyl-1-[3-(2-hydroxyethoxy)phenyl]-1H-pyrazol-5-yl}amino)carbonyl]amino}methyl)benzyl]oxy}-3-chloro-6-methyl-2-oxopyridin-1(2H)-yl]-N,4-dimethylbenzamide]: 8.59; for `Cc1ccc(C(=O)NCC(O)CO)cc1-n1c(C)cc(OCc2ccccc2CNC(=O)Nc2cc(C(C)(C)C)nn2-c2cccc(OCCO)c2)c(Cl)c1=O` (stereo not drawn) [Example 212, 3-[4-{[2-({[({3-tert-butyl-1-[3-(2-hydroxyethoxy)phenyl]-1H-pyrazol-5-yl}amino)carbonyl]amino}methyl)benzyl]oxy}-3-chloro-6-methyl-2-oxopyridin-1(2H)-yl]-N-(2,3-dihydroxypropyl)-4-methylbenzamide]: 8.74.
Then `COC(=O)c1ccc(C)c(-n2c(C)cc(OCc3ccccc3CNC(=O)Nc3cc(C(C)(C)C)nn3-c3ccc(O)cc3)c(Cl)c2=O)c1` [Example 213, methyl 3-{4-[(2-{[({[3-tert-butyl-1-(4-hydroxyphenyl)-1H-pyrazol-5-yl]amino}carbonyl)amino]methyl}benzyl)oxy]-3-chloro-6-methyl-2-oxopyridin-1(2H)-yl}-4-methylbenzoate], with 8.40; and `CNC(=O)c1ccc(C)c(-n2c(C)cc(OCc3ccccc3CNC(=O)Nc3cc(C(C)(C)C)nn3-c3ccc(O)cc3)c(Cl)c2=O)c1` [Example 214, 3-{4-[(2-{[({[3-tert-butyl-1-(4-hydroxyphenyl)-1H-pyrazol-5-yl]amino}carbonyl)amino]methyl}benzyl)oxy]-3-chloro-6-methyl-2-oxopyridin-1(2H)-yl}-N,4-dimethylbenzamide], with 8.68.
Then `COc1cccc(Cn2c(C)cc(OCc3ccccc3CNC(=O)Nc3cc(C(C)(C)C)nn3-c3ccc(O)c(Cl)c3)c(Cl)c2=O)c1` [Example 215, 1-[3-tert-butyl-1-(3-chloro-4-hydroxyphenyl)-1H-pyrazol-5-yl]-3-[2-({[3-chloro-1-(3-methoxy-benzyl)-6-methyl-2-oxo-1,2-dihydropyridin-4-yl]oxy}methyl)-benzyl]urea], with 8.10; and `Cc1ccc(C(=O)NCCO)cc1-n1c(C)cc(OCc2ccccc2CNC(=O)Nc2cc(C(C)(C)C)nn2-c2ccc(O)cc2)c(Cl)c1=O` [Example 216, 3-{4-[(2-{[({[3-tert-butyl-1-(4-hydroxyphenyl)-1H-pyrazol-5-yl]amino}carbonyl)amino]methyl}benzyl)oxy]-3-chloro-6-methyl-2-oxopyridin-1(2H)-yl}-N-(2-hydroxyethyl)-4-methyl-benzamide], with 8.74.
Consider `Cc1ccc(C(=O)NCC(O)CO)cc1-n1c(C)cc(OCc2ccccc2CNC(=O)Nc2cc(C(C)(C)C)nn2-c2ccc(O)cc2)c(Cl)c1=O` (stereo not drawn) [Example 217, 3-{4-[(2-{[({[3-tert-butyl-1-(4-hydroxyphenyl)-1H-pyrazol-5-yl]amino}carbonyl)amino]methyl}benzyl)oxy]-3-chloro-6-methyl-2-oxopyridin-1(2H)-yl}-N-(2,3-dihydroxypropyl)-4-methylbenzamide], for which the pIC50 is 8.82.
The same measure for `COCCNC(=O)c1ccc(C)c(-n2c(C)cc(OCc3ccccc3CNC(=O)Nc3cc(C(C)(C)C)nn3-c3ccc(O)cc3)c(Cl)c2=O)c1` [Example 218, 3-{4-[(2-{[({[3-tert-butyl-1-(4-hydroxyphenyl)-1H-pyrazol-5-yl]amino}carbonyl)amino]methyl}benzyl)oxy]-3-chloro-6-methyl-2-oxopyridin-1(2H)-yl}-N-(2-methoxyethyl)-4-methyl-benzamide]: 8.74.
The same measure for `Cc1ccc(C(=O)NCC(N)=O)cc1-n1c(C)cc(OCc2ccccc2CNC(=O)Nc2cc(C(C)(C)C)nn2-c2ccc(O)cc2)c(Cl)c1=O` [Example 219, N-(2-amino-2-oxoethyl)-3-{4-[(2-{[({[3-tert-butyl-1-(4-hydroxyphenyl)-1H-pyrazol-5-yl]amino}carbonyl)amino]-methyl}benzyl)oxy]-3-chloro-6-methyl-2-oxopyridin-1(2H)-yl}-4-methylbenzamide]: 9.05; for `Cc1ccc(C(=O)N[C@@H](C)C(N)=O)cc1-n1c(C)cc(OCc2ccccc2CNC(=O)Nc2cc(C(C)(C)C)nn2-c2ccc(O)cc2)c(Cl)c1=O` [Example 220, N-[(1S)-2-amino-1-methyl-2-oxoethyl]-3-{4-[(2-{[({[3-tert-butyl-1-(4-hydroxyphenyl)-1H-pyrazol-5-yl]amino}carbonyl)-amino]methyl}benzyl)oxy]-3-chloro-6-methyl-2-oxopyridin-1(2H)-yl}-4-methylbenzamide]: 8.85; for `COC(=O)c1ccc(C)c(-n2c(C)cc(OCc3ccccc3CNC(=O)Nc3cc(C(C)(C)C)nn3-c3ccc(Cl)c(O)c3)c(Cl)c2=O)c1` [Example 221, methyl 3-{4-[(2-{[({[3-tert-butyl-1-(4-chloro-3-hydroxy-phenyl)-1H-pyrazol-5-yl]amino}carbonyl)amino]-methyl}-benzyl)oxy]-3-chloro-6-methyl-2-oxopyridin-1(2H)-yl}-4-methylbenzoate]: 7.98.

Source of the values: patent publication US20090270350A1, “Pyridinone Pyrazole Urea and Pyrimidinone Pyrazole Urea Derivatives” (PFIZER INC., priority 2006, published 2009).
